Experimental findings from ChEMBL document CHEMBL2016457, “Discovery of potent and orally bioavailable 17β-hydroxysteroid dehydrogenase type 3 inhibitors” (Bioorg Med Chem, 2012) are described below.

Activity calls are given as the source filed them. No rule for the calls is given here.

Test [1] deals with T1, Glucocorticoid receptor (Homo sapiens) (UniProt P04150).
T1 sequence (whole entry): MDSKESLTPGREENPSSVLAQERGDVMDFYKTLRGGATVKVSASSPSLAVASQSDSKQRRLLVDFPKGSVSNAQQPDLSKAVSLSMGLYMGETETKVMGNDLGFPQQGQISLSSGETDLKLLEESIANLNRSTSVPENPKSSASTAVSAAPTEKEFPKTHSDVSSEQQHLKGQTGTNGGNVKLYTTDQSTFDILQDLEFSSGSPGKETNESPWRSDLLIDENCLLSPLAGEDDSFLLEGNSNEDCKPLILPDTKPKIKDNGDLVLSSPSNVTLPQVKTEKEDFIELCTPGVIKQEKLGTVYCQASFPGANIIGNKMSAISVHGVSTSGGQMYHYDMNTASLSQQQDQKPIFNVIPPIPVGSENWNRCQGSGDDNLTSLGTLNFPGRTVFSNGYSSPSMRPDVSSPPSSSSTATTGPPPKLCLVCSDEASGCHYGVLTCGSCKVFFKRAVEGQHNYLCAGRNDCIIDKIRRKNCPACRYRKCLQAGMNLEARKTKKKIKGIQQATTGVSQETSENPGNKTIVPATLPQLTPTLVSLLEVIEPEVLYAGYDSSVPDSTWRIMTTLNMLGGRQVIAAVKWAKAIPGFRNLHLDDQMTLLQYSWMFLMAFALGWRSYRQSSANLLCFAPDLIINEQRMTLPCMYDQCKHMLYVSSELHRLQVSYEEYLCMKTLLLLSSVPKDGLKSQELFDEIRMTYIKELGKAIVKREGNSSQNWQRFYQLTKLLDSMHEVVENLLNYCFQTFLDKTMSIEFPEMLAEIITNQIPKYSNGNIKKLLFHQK
Nature of the test: Antagonist activity at human GR receptor expressed in human HeLa cells assessed as inhibition of DHT-induced response after 40 hrs by luciferase/beta-galactosidase-based reporter gene assay. It counts as functional, cell-based.

The target of test [2] is T2, 17-beta-hydroxysteroid dehydrogenase type 2 (Homo sapiens) (UniProt P37059).
T2 sequence (whole entry): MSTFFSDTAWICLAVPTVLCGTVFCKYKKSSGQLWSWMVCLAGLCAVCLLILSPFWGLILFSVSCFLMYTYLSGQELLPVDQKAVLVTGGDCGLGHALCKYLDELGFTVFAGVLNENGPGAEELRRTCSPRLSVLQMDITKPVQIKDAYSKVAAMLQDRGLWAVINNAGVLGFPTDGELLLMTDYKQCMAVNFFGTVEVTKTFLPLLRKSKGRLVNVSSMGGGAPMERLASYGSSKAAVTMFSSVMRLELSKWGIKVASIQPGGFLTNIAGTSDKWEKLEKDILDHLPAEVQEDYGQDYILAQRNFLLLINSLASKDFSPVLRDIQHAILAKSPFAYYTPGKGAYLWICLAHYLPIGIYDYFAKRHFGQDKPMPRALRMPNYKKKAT
Nature of the test: Inhibition of human recombinant 17-beta-HSD2 expressed in human HeLa cells using estradiol as substrate preincubated for 30 mins prior substrate addition measured after 120 mins by spectrophotometry. The class given is cell-based.

The target in test [3] is T3, Androgen receptor (Homo sapiens) (UniProt P10275).
T3 sequence (whole entry): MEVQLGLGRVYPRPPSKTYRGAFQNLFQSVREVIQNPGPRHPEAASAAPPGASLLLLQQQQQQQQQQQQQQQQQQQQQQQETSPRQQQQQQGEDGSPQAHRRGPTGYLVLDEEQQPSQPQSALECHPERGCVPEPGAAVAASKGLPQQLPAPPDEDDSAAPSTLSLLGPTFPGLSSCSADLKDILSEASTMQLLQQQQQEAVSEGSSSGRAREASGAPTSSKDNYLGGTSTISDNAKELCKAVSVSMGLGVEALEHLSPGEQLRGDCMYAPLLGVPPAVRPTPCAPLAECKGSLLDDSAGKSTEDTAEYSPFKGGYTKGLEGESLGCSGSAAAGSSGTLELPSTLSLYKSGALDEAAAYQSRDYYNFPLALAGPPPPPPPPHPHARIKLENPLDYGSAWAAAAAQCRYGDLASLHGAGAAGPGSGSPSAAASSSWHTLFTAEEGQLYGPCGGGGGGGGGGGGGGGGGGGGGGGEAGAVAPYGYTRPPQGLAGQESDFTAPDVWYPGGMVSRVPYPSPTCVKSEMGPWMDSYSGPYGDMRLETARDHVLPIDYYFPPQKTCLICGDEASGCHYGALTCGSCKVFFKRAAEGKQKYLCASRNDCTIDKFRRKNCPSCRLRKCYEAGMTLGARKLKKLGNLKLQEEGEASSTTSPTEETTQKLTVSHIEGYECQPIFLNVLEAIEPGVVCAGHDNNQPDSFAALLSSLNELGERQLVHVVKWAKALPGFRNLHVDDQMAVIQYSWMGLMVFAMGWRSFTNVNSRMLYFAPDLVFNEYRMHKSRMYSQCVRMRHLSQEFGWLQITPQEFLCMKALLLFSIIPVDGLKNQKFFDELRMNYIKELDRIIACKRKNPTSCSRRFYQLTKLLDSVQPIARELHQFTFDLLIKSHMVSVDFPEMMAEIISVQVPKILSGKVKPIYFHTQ
Nature of the test: Antagonist activity at human androgen receptor expressed in human HeLa cells assessed as inhibition of DHT-induced response after 40 hrs by luciferase/beta-galactosidase-based reporter gene assay. The class given is functional, cell-based. For orientation: In a reporter assay the amount or activity of a reporter protein is the signal.

In test [4] the target is T3, Androgen receptor (Homo sapiens). Nature of the test: Agonist activity at human androgen receptor expressed in human HeLa cells assessed as DHT-induced response after 40 hrs by luciferase/beta-galactosidase-based reporter gene assay. It counts as functional, cell-based.
For test [5], the target named is T4, Estrogen receptor (Homo sapiens) (UniProt P03372).
T4 sequence (whole entry): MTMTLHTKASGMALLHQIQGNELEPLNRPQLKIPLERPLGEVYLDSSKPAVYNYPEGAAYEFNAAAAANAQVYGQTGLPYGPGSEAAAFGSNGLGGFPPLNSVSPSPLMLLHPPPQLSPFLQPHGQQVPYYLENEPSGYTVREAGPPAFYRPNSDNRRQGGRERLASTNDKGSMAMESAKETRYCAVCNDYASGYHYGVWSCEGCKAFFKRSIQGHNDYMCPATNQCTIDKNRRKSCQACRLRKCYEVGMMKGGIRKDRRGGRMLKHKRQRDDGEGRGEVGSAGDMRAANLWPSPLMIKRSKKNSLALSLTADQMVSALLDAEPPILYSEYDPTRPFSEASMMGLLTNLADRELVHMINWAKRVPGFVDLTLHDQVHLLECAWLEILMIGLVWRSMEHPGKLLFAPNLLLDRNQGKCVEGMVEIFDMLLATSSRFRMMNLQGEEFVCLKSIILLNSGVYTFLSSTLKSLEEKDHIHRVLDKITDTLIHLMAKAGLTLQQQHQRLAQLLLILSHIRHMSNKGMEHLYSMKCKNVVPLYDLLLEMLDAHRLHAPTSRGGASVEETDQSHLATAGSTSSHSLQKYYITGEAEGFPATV
Nature of the test: Antagonist activity at human ERalpha receptor expressed in human HeLa cells assessed as inhibition of DHT-induced response after 40 hrs by luciferase/beta-galactosidase-based reporter gene assay. It counts as functional, cell-based.

The target in test [6] is T5, 17-beta-hydroxysteroid dehydrogenase type 3 (Homo sapiens, UniProt P37058).
T5 sequence (P37058 whole entry): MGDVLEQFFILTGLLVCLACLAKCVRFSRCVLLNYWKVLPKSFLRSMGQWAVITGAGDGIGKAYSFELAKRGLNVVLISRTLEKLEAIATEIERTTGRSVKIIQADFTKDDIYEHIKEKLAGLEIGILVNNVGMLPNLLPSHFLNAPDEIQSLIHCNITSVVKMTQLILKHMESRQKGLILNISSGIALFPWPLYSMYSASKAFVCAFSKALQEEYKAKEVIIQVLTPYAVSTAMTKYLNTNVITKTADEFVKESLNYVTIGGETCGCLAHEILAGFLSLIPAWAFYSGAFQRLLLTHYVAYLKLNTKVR
Description: Inhibition of human recombinant 17-beta-HSD3 expressed in human HeLa cells using androstenedione as substrate preincubated for 30 mins prior substrate addition measured after 120 mins by spectrophotometry

Test [7] deals with T1, Glucocorticoid receptor (Homo sapiens). Nature of the test: Agonist activity at human Glucocorticoid receptor expressed in human HeLa cells assessed as DHT-induced response after 40 hrs by luciferase/beta-galactosidase-based reporter gene assay. It counts as functional, cell-based.
For test [8], the target named is T4, Estrogen receptor (Homo sapiens). Nature of the test: Agonist activity at human Estrogen receptor ERalpha expressed in human HeLa cells assessed as DHT-induced response after 40 hrs by luciferase/beta-galactosidase-based reporter gene assay. It counts as functional, cell-based.
The target in test [9] is T6, 17-beta-hydroxysteroid dehydrogenase type 1 (Homo sapiens) (UniProt P14061).
T6 sequence (whole entry): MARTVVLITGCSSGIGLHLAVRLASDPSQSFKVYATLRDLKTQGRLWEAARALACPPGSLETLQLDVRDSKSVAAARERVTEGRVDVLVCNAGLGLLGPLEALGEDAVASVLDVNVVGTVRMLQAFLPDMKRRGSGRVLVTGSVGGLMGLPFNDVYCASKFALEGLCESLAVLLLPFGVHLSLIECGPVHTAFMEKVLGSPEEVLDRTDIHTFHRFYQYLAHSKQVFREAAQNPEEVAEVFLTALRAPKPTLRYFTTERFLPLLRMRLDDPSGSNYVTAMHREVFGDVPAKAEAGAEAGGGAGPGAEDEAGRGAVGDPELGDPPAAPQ
Nature of the test: Inhibition of human recombinant 17-beta-HSD1 expressed in human HeLa cells using estrone as substrate preincubated for 30 mins prior substrate addition measured after 120 mins by spectrophotometry. It counts as cell-based.

Regarding `CN(C)c1ccc(N2C(=O)O/C(=C\c3ccc(O)c(Br)c3)C2=O)cc1`, the result in [1], in [3], in test [4], in [5], in test [7] and in [8] was inactive. Moreover, the inhibition result in [2] and in test [9] was “inactive” each time. Moreover, the half-inhibitory concentration (IC50) (usually the concentration at which inhibition is half-maximal) in test [6] was 25 nM.

Take `O=C1/C(=C/c2ccc(O)c(Br)c2)OC(=S)N1c1ccc2c(c1)OCO2`: the outcome in [1], in test [3], in [4], in test [5], in test [7] and in test [8] was inactive. Also, the inhibition entry in test [2] and in test [9] was “inactive” each time. The IC50 in [6] came out at 12 nM.

For the molecule `C#CCN1C(=O)/C(=C/c2ccc(O)c(Br)c2)SC1=S`, the outcome in test [1], in [3], in test [4], in test [5], in test [7] and in test [8] was inactive. The inhibition entry in [2] and in test [9] was “inactive” each time. In test [6], this molecule registered an IC50 of 300 nM.

On to `COc1ccc(N2C(=O)/C(=C/c3ccc(O)c(F)c3)OC2=S)cc1`, for which the result in test [1], in test [3], in [4], in [5], in test [7] and in test [8] was inactive. For the same molecule, the inhibition result in [2] and in [9] was “inactive” in each case. This molecule also yielded an IC50 in [6] of 2 nM.

Consider `CS(=O)(=O)c1ccc(N2C(=O)O/C(=C\c3ccc(O)c(Br)c3)C2=O)cc1`, for which the result in [1], in test [3], in test [4], in [5], in test [7] and in test [8] was inactive. The inhibition entry in [2] and in test [9] was “inactive” in each case. This molecule gave a half-maximal inhibitory concentration (IC50) in [6] of 900 nM.

As for `COCCN1C(=O)/C(=C/c2ccc(O)c(Br)c2)SC1=S`, the result in test [1], in test [3], in test [4], in test [5], in test [7] and in test [8] was inactive. Moreover, the inhibition result in test [2] and in test [9] was “inactive” throughout. Besides, the half-inhibitory concentration (IC50) in test [6] worked out at 190 nM.

Consider `O=C1O/C(=C\c2ccc(O)c(Br)c2)C(=O)N1c1ccc(F)nc1`, for which the result in test [1], in [3], in [4], in test [5], in [7] and in test [8] was inactive. The inhibition entry in test [2] and in test [9] was “inactive” throughout. Further, it took 21 nM to reach half-maximal inhibition in test [6] (IC50).

As to `COc1ccc(N2C(=O)/C(=C/c3ccc(O)cc3)OC2=S)cc1`, the outcome in [1], in test [3], in test [4], in test [5], in test [7] and in test [8] was inactive. The inhibition entry in [2] and in test [9] was “inactive” throughout. This molecule yielded an IC50 in test [6] of 121 nM.
